Data published in patent US20110081315A1, “NOVEL MACROCYCLIC INHIBITORS OF HEPATITIS C VIRUS REPLICATION” (INTERMUNE, INC., priority 2009, published 2011).

What was measured:
NS3/NS4 complexes = NS3/NS4 complexes (Hepatitis C virus genotype 1a, UniProt P27958); assay: NS3/NS4 inhibition assay (IC50); type: biochemical; conditions: NS3/NS4 activity; 23° C., 25 μM NS4A peptide
Summary of the method: (§1)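 First, NS3 and NS4 are complexed; test compounds are then titrated against the complex at room temperature (23° C.) in Tris-HCl buffer, pH 7.5, supplemented with glycerol (15%), LDAO (0.6 mM), DTT (10 mM) and NS4A peptide (25 μM) to give IC50. Separately, replicon cells give EC50.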

hepatitis C replicon = hepatitis C replicon EC50 assay; type: cell-based; conditions: Hepatitis C virus; hepatitis C replicon; read-out: EC50
Summary of the method: as §1

NS3/NS4 complexes, sequence (P27958 1027-1657, one chain of several): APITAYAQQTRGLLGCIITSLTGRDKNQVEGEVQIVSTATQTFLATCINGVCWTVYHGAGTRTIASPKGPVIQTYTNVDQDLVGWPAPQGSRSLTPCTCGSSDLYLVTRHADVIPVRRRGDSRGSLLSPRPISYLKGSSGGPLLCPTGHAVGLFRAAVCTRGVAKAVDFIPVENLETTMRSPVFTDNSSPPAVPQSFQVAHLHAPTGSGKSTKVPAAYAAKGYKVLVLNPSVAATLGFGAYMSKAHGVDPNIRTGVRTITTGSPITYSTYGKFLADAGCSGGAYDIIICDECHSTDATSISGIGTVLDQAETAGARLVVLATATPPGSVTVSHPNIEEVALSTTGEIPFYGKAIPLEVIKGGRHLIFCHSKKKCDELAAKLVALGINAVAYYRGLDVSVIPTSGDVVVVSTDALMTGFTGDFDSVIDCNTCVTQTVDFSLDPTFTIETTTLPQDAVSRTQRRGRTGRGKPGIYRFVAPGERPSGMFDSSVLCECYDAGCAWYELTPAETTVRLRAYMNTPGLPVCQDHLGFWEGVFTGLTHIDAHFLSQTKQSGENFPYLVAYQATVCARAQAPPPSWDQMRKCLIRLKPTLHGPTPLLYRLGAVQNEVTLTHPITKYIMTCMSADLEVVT

Compound: CC(C)n1c(O[C@@H]2C[C@H]3C(=O)N[C@]4(C(=O)NS(=O)(=O)N(C)C)C[C@H]4/C=C\CCCCC[C@H](NC(=O)OC(C)(C)C)C(=O)N3C2)nc2c(-c3csc(C(C)(C)C)n3)cccc21 [Compound 1743]
- IC50 (NS3/NS4 complexes): < 10 nM
- EC50 (hepatitis C replicon): 10 to 100 nM

Compound: COc1ccc2c(O[C@@H]3C[C@H]4C(=O)N[C@]5(C(=O)NS(=O)(=O)C6(C)CC6)C[C@H]5/C=C\CCCCC[C@H](Nc5cccc(C(=O)N6CCN(C(C)c7ccccc7)CC6)c5)C(=O)N4C3)cc(-c3nc(C(C)C)cs3)nc2c1C (stereo partly shown) [Compound 116]
- IC50 (NS3/NS4 complexes): < 10 nM
- EC50 (hepatitis C replicon): 10 to 100 nM

Compound: CC(C)n1c(O[C@@H]2C[C@H]3C(=O)N[C@]4(C(=O)O)C[C@H]4/C=C\CCCCC[C@H](Nc4cccc(F)c4)C(=O)N3C2)nc2c(-c3nc(C4CCCC4)cs3)cccc21 [Compound 1763]
- IC50 (NS3/NS4 complexes): 10 to 100 nM
- EC50 (hepatitis C replicon): > 100 nM

Compound: Cc1sc(-c2c(F)ccc3c2nc(O[C@@H]2C[C@H]4C(=O)N[C@]5(C(=O)NS(=O)(=O)N(C)C)C[C@H]5/C=C\CCCCC[C@H](NC(=O)OC(C)(C)C)C(=O)N4C2)n3C(C)C)nc1C(C)C [Compound 1219]
- IC50 (NS3/NS4 complexes): < 10 nM
- EC50 (hepatitis C replicon): < 10 nM

Compound: CCCc1nc(-c2cccc3c2nc(O[C@@H]2C[C@H]4C(=O)N[C@]5(C(=O)NS(=O)(=O)C6(C)CC6)C[C@H]5/C=C\CCCCC[C@H](NC(=O)OC(C)(C)C)C(=O)N4C2)n3C(C)C)sc1C [Compound 1210]
- IC50 (NS3/NS4 complexes): < 10 nM
- EC50 (hepatitis C replicon): < 10 nM

Compound: CCCc1nc(-c2cccc3c2nc(O[C@@H]2C[C@H]4C(=O)N[C@]5(C(=O)NS(=O)(=O)N(C)C)C[C@H]5/C=C\CCCCC[C@H](NC(=O)OC(C)(C)C)C(=O)N4C2)n3C(C)C)oc1C [Compound 1206]
- IC50 (NS3/NS4 complexes): < 10 nM
- EC50 (hepatitis C replicon): < 10 nM

Compound: CC(C)n1c(O[C@@H]2C[C@H]3C(=O)N[C@]4(C(=O)NS(=O)(=O)C5(C)CC5)C[C@H]4/C=C\CCCCC[C@H](Nc4ccc(F)cc4)C(=O)N3C2)nc2c(-c3nc(C4CCCC4)cs3)cccc21 [Compound 1728]
- IC50 (NS3/NS4 complexes): < 10 nM
- EC50 (hepatitis C replicon): > 100 nM

Compound: CC(C)n1c(O[C@@H]2C[C@H]3C(=O)N[C@]4(C(=O)NS(=O)(=O)C5(C)CC5)C[C@H]4/C=C\CCCCC[C@H](Nc4cccc(C(C)(C)C)c4)C(=O)N3C2)nc2ccccc21 [Compound 200]
- IC50 (NS3/NS4 complexes): < 10 nM
- EC50 (hepatitis C replicon): < 10 nM

Compound: CCCc1nc(-c2cccc3c2nc(O[C@@H]2C[C@H]4C(=O)N[C@]5(C(=O)NS(=O)(=O)N(C)C)C[C@H]5/C=C\CCCCC[C@H](NC(=O)OC(C)(C)C)C(=O)N4C2)n3C(C)C)sc1C [Compound 1209]
- IC50 (NS3/NS4 complexes): < 10 nM
- EC50 (hepatitis C replicon): < 10 nM

Compound: CC(C)n1c(O[C@@H]2C[C@H]3C(=O)N[C@]4(C(=O)NS(=O)(=O)C5(C)CC5)C[C@H]4/C=C\CCCCC[C@H](Nc4ccccc4)C(=O)N3C2)nc2c(-c3ccc(C#N)cc3)cccc21 [Compound 240]
- IC50 (NS3/NS4 complexes): < 10 nM
- EC50 (hepatitis C replicon): 10 to 100 nM

Compound: CC(C)n1c(O[C@@H]2C[C@H]3C(=O)N[C@]4(C(=O)NS(=O)(=O)C5(C)CC5)C[C@H]4/C=C\CCCCC[C@H](NC(=O)OC4CCCC4)C(=O)N3C2)nc2c(-c3nc(-c4ccccc4)cs3)cccc21 [Compound 1730]
- IC50 (NS3/NS4 complexes): < 10 nM
- EC50 (hepatitis C replicon): < 10 nM

Compound: CC(C)n1c(O[C@@H]2C[C@H]3C(=O)N[C@]4(C(=O)NS(=O)(=O)N(C)C)C[C@H]4/C=C\CCCCC[C@H](NC(=O)OC(C)(C)C)C(=O)N3C2)nc2c(-c3nc(CC4CCCCC4)cs3)cccc21 [Compound 1772]
- IC50 (NS3/NS4 complexes): < 10 nM
- EC50 (hepatitis C replicon): 10 to 100 nM

Compound: Cc1ccc(-c2csc(-c3cccc4c3nc(O[C@@H]3C[C@H]5C(=O)N[C@]6(C(=O)NS(=O)(=O)N(C)C)C[C@H]6/C=C\CCCCC[C@H](NC(=O)OC(C)(C)C)C(=O)N5C3)n4C(C)C)n2)c(C)c1 [Compound 1754]
- IC50 (NS3/NS4 complexes): < 10 nM
- EC50 (hepatitis C replicon): 10 to 100 nM

Compound: Cn1cnc2cc(O[C@@H]3C[C@H]4C(=O)N[C@]5(C(=O)NS(=O)(=O)C6(C)CC6)C[C@H]5/C=C\CCCCC[C@H](NC(=O)OC(C)(C)C)C(=O)N4C3)ccc21 [Compound 295]
- IC50 (NS3/NS4 complexes): < 10 nM
- EC50 (hepatitis C replicon): > 100 nM

Compound: COc1ccc2c(O[C@@H]3C[C@H]4C(=O)N[C@]5(C(=O)NS(=O)(=O)C6(C)CC6)C[C@H]5/C=C\CCCCC[C@H](Nc5cccc(C(=O)N6CCN(CCN(C)C)CC6)c5)C(=O)N4C3)cc(-c3nc(C(C)C)cs3)nc2c1C [Compound 111]
- IC50 (NS3/NS4 complexes): < 10 nM
- EC50 (hepatitis C replicon): < 10 nM

Compound: CC(C)n1c(O[C@@H]2C[C@H]3C(=O)N[C@]4(C(=O)NS(=O)(=O)C5(C)CC5)C[C@H]4/C=C\CCCCC[C@H](NC(=O)OC(C)(C)C)C(=O)N3C2)nc2c(-c3nccs3)cccc21 [Compound 234]
- IC50 (NS3/NS4 complexes): < 10 nM
- EC50 (hepatitis C replicon): < 10 nM

Compound: CC(C)n1c(O[C@@H]2C[C@H]3C(=O)N[C@]4(C(=O)NS(=O)(=O)C5(C)CC5)C[C@H]4/C=C\CCCCC[C@H](NC(=O)OC(C)(C)C)C(=O)N3C2)nc2c(-c3nc(Cc4cc(F)cc(F)c4)cs3)cccc21 [Compound 1722]
- IC50 (NS3/NS4 complexes): < 10 nM
- EC50 (hepatitis C replicon): 10 to 100 nM

Compound: CC(C)n1c(O[C@@H]2C[C@H]3C(=O)N[C@]4(C(=O)NS(=O)(=O)N(C)C)C[C@H]4/C=C\CCCCC[C@H](NC(=O)OC(C)(C)C)C(=O)N3C2)nc2c(C(=O)O)cccc21 [Compound 276]
- IC50 (NS3/NS4 complexes): < 10 nM
- EC50 (hepatitis C replicon): > 100 nM

Compound: CC(C)n1c(O[C@@H]2C[C@H]3C(=O)N[C@]4(C(=O)NS(=O)(=O)C5(C)CC5)C[C@H]4/C=C\CCCCC[C@H](NC(=O)OC(C)(C)C)C(=O)N3C2)nc2c(-c3nc(Cc4cccc(F)c4)cs3)cccc21 [Compound 1725]
- IC50 (NS3/NS4 complexes): < 10 nM
- EC50 (hepatitis C replicon): < 10 nM

Compound: Cc1cnc(-c2cccc3c2nc(O[C@@H]2C[C@H]4C(=O)N[C@]5(C(=O)NS(=O)(=O)C6CC6)C[C@H]5/C=C\CCCCC[C@H](NC(=O)OC(C)(C)C)C(=O)N4C2)n3C(C)C)s1 [Compound 216]
- IC50 (NS3/NS4 complexes): < 10 nM
- EC50 (hepatitis C replicon): < 10 nM

Compound: COc1ccc2c(O[C@@H]3C[C@H]4C(=O)N[C@]5(C(=O)NS(=O)(=O)C6(C)CC6)C[C@H]5/C=C\CCCCC[C@H](Nc5cccc(C(=O)N6CCN(C)CC6)c5)C(=O)N4C3)cc(-c3nc(C(C)C)cs3)nc2c1C [Compound 104]
- IC50 (NS3/NS4 complexes): < 10 nM
- EC50 (hepatitis C replicon): < 10 nM

Compound: CC(C)n1c(O[C@@H]2C[C@H]3C(=O)N[C@]4(C(=O)NS(=O)(=O)C5CC5)C[C@H]4/C=C\CCCCC[C@H](NC(=O)OC(C)(C)C)C(=O)N3C2)nc2c(-c3nc(C4CCCC4)cs3)cccc21 [Compound 1434]
- IC50 (NS3/NS4 complexes): < 10 nM
- EC50 (hepatitis C replicon): < 10 nM

Compound: CN(C)S(=O)(=O)NC(=O)[C@@]12C[C@H]1/C=C\CCCCC[C@H](NC(=O)OC(C)(C)C)C(=O)N1C[C@H](Oc3ccc4c(ccn4C)c3)C[C@H]1C(=O)N2 [Compound 701]
- IC50 (NS3/NS4 complexes): < 10 nM
- EC50 (hepatitis C replicon): > 100 nM

Compound: CCNC(=O)Nc1cccc2c1nc(O[C@@H]1C[C@H]3C(=O)N[C@]4(C(=O)NS(=O)(=O)C5(C)CC5)C[C@H]4/C=C\CCCCC[C@H](Nc4ccccc4)C(=O)N3C1)n2C(C)C [Compound 1405]
- IC50 (NS3/NS4 complexes): < 10 nM
- EC50 (hepatitis C replicon): 10 to 100 nM

Compound: CC(C)n1c(O[C@@H]2C[C@H]3C(=O)N[C@]4(C(=O)NS(=O)(=O)C5CC5)C[C@H]4/C=C\CCCCC[C@H](NC(=O)OC(C)(C)C)C(=O)N3C2)nc2c(-c3cncs3)cccc21 [Compound 223]
- IC50 (NS3/NS4 complexes): < 10 nM
- EC50 (hepatitis C replicon): < 10 nM

Compound: CC(C)n1c(O[C@@H]2C[C@H]3C(=O)N[C@]4(C(=O)NS(=O)(=O)C5CC5)C[C@H]4/C=C\CCCCC[C@H](NC(=O)OC(C)(C)C)C(=O)N3C2)nc2c(-c3nc(C(C)(C)C)cs3)cccc21 [Compound 220]
- IC50 (NS3/NS4 complexes): < 10 nM
- EC50 (hepatitis C replicon): < 10 nM

Compound: CC(C)c1ccc2c(c1)nc(O[C@@H]1C[C@H]3C(=O)N[C@]4(C(=O)NS(=O)(=O)C5(C)CC5)C[C@H]4/C=C\CCCCC[C@H](Nc4ccccc4)C(=O)N3C1)n2C(C)C [Compound 202]
- IC50 (NS3/NS4 complexes): < 10 nM
- EC50 (hepatitis C replicon): > 100 nM

Compound: COc1ccc2c(O[C@@H]3C[C@H]4C(=O)N[C@]5(C(=O)NS(=O)(=O)C6(C)CC6)C[C@H]5/C=C\CCCCC[C@H](Nc5cccc(C(=O)N6CCN(c7ccccc7C)CC6)c5)C(=O)N4C3)cc(-c3nc(C(C)C)cs3)nc2c1C [Compound 118]
- IC50 (NS3/NS4 complexes): < 10 nM
- EC50 (hepatitis C replicon): 10 to 100 nM

Compound: CC(C)n1c(O[C@@H]2C[C@H]3C(=O)N[C@]4(C(=O)NS(=O)(=O)C5(C)CC5)C[C@H]4/C=C\CCCCC[C@H](Nc4ccccc4)C(=O)N3C2)nc2c(-c3ccccc3F)cccc21 [Compound 242]
- IC50 (NS3/NS4 complexes): < 10 nM
- EC50 (hepatitis C replicon): 10 to 100 nM

Compound: Cc1oc(-c2cccc3c2nc(O[C@@H]2C[C@H]4C(=O)N[C@]5(C(=O)NS(=O)(=O)N(C)C)C[C@H]5/C=C\CCCCC[C@H](NC(=O)OC(C)(C)C)C(=O)N4C2)n3C(C)C)nc1C(C)(C)C [Compound 1205]
- IC50 (NS3/NS4 complexes): < 10 nM
- EC50 (hepatitis C replicon): < 10 nM

Compound: CC(C)n1c(O[C@@H]2C[C@H]3C(=O)N[C@]4(C(=O)NS(=O)(=O)N(C)C)C[C@H]4/C=C\CCCCC[C@H](NC(=O)OC(C)(C)C)C(=O)N3C2)nc2c(-c3nc(Cc4cccc(Cl)c4)cs3)cccc21 [Compound 1761]
- IC50 (NS3/NS4 complexes): < 10 nM
- EC50 (hepatitis C replicon): 10 to 100 nM

Compound: Cc1oc(-c2c(F)ccc3c2nc(O[C@@H]2C[C@H]4C(=O)N[C@]5(C(=O)NS(=O)(=O)N(C)C)C[C@H]5/C=C\CCCCC[C@H](NC(=O)OC(C)(C)C)C(=O)N4C2)n3C(C)C)nc1C(C)C [Compound 1220]
- IC50 (NS3/NS4 complexes): < 10 nM
- EC50 (hepatitis C replicon): < 10 nM

Compound: CC(C)c1cccc2c1nc(O[C@@H]1C[C@H]3C(=O)N[C@]4(C(=O)NS(=O)(=O)N(C)C)C[C@H]4/C=C\CCCCC[C@H](NC(=O)OC(C)(C)C)C(=O)N3C1)n2C(C)C [Compound 288]
- IC50 (NS3/NS4 complexes): < 10 nM
- EC50 (hepatitis C replicon): < 10 nM

Compound: COc1ccc2c(O[C@@H]3C[C@H]4C(=O)N[C@]5(C(=O)NS(=O)(=O)C6(C)CC6)C[C@H]5/C=C\CCCCC[C@H](Nc5cccc(NC(=O)N6CCOCC6)c5)C(=O)N4C3)cc(-c3nc(C(C)C)cs3)nc2c1C [Compound 127]
- IC50 (NS3/NS4 complexes): < 10 nM
- EC50 (hepatitis C replicon): < 10 nM

Compound: CC1(S(=O)(=O)NC(=O)[C@@]23C[C@H]2/C=C\CCCCC[C@H](Nc2ccccc2)C(=O)N2C[C@H](n4nc5ccccc5n4)C[C@H]2C(=O)N3)CC1 [Compound 1501]
- IC50 (NS3/NS4 complexes): 10 to 100 nM
- EC50 (hepatitis C replicon): > 100 nM
